Source: patent publication US20160291027A1, “METHODS FOR […] ABILITY OF A Z[…] COMPOUND TO TREAT CANCER” (Eisai R&D Management Co., Ltd., priority 2007, published 2016)

Assays:
[1] = tested on: LOX human melanoma xenografts; experiment: Subcutaneous LOX melanoma xenograft model; type: in vivo, mice
Protocol: The purpose of this study was to investigate anticancer activity of Compound 106 in a LOX human melanoma xenograft model. LOX human melanoma cells, which carry a BRAF (V600E) mutation, were obtained from the DCTD Tumor Repository (Frederick, Md.). Cells were grown in monolayer cultures in T225 flask with RPMI-1640 growth media at 37° C. in a 5% CO2 humidified incubator. Cells were further cultivated in T225 flasks for the in vivo study. On the day of subcutaneous (s.c.) injections of the cells, growth medium was removed, flasks were washed with PBS, and cells were collected with trypsinization. Cells were washed and centrifuged for 3 minutes, and then resuspended in ice-cold PBS.
Female athymic NU/NU mice were inoculated s.c. with 1×10^6 LOX human melanoma cells. Those animals that developed tumors of approximately 150 mm^3 were selected and randomized to five groups. The study consisted of a vehicle-treated group and four drug-treated groups of 8 mice per group for a total of 40 mice on the first day of treatment. All treatments were initiated on day 6. Compound 106 was administered intravenously (i.v.) on a Q4D×3 (days 6, 10, and 14) dosing schedule at dosages of 5, 10, 20 and 40 mg/kg with a volume of injection of 0.1 mL per 10 g body weight. The control group was treated with vehicle (20% Captisol in water) alone.
The s.c. tumor volumes were measured and animals were weighed twice weekly starting with the first day of treatment. Tumor volume and relative body weight (RBW) were determined as described in Example 12.
The study was terminated fifty-nine days after cancer cell transplantation. For each Compound 106 treatment group, measurements were also terminated when mean tumor volume reached two doublings (4-fold tumor volume) from the first day of treatment.
Animals were treated intravenously on days 6, 10, and 14 (Q4D×3; indicated by arrows in FIG. 11). Tumor measurements on tumor bearing mice in all surviving groups were stopped on day 37. Then, tumor measurements were continued for tumor-free mice in the 10 mg/kg (1/8), 20 mg/kg (5/8), and 40 mg/kg (7/8) Compound 106 treatment groups. The study was terminated on day 59. Asterisks (*) indicate P<0.05 vs. control group.

[2] = tested on: wildtype xenograft models (pancreatic cell lines); experiment: Other xenograft models, wildtype; type: in vivo, mice; settings: 40 mg/kg i.v. QD×5 for 2 weeks
Protocol: Additionally, one, five, and seven out of eight animals in the groups treated with Compound 106 at doses of 10, 20, or 40 mg/kg, respectively, were tumor-free at the end of the study on day 59. […] Compound 106 was also tested in other xenograft models, in which BRAF-mutated cells, including breast, colon, and melanoma cell lines, or wildtype cells, including pancreatic cell lines, were transplanted subcutaneously into female nude mice. Compound 106 or a vehicle control was administered intravenously.

[3] = tested on: SK-MEL-3; experiment: MTS cell growth inhibition assay; type: cell-based; settings: Homo sapiens, SK-MEL3, 96 h, SK-MEL-3 melanoma, BRAF mutated, four days
Protocol: (§1) Cell growth inhibition following treatment with a zearalenone analog compound, Compound 106, was assessed in a panel of cancerous cell lines from different tissue types, which carry mutations in BRAF and/or RAS. A panel of 21 cell lines was tested with varying concentrations of Compound 106. All assays were performed in a 96 well format. Cell viability was assessed after four days following treatment. Cell viability was assessed with a MTS Assay (CellTiter96®AqueousOne Solution Cell Proliferation Assay, Promega) in a panel of cell lines carrying no mutations or various BRAF (V600E) and/or RAS mutations to determine the effect of BRAF and RAS genotype on drug sensitivity.

[4] = tested on: MDA-MB-435; experiment: MTS cell growth inhibition assay; type: cell-based; settings: Homo sapiens, 96 h, MDA-MB-435 breast, BRAF mutated, four days
Protocol: as §1

[5] = tested on: Colo-205; experiment: MTS cell growth inhibition assay; type: cell-based; settings: Homo sapiens, 96 h, Colo-205 colorectal, BRAF mutated, four days
Protocol: as §1

[6] = tested on: SK-MEL-28; experiment: MTS cell growth inhibition assay; type: cell-based; settings: Homo sapiens, 96 h, SK-MEL-28 melanoma, BRAF mutated, four days
Protocol: as §1

[7] = tested on: HT-29; experiment: MTS cell growth inhibition assay; type: cell-based; settings: Homo sapiens, 96 h, HT-29 colorectal, BRAF mutated, four days
Protocol: as §1

[8] = tested on: SK-MEL-24; experiment: MTS cell growth inhibition assay; type: cell-based; settings: Homo sapiens, 96 h, SK-MEL-24 melanoma, BRAF mutated, four days
Protocol: as §1

[9] = tested on: DU4475; experiment: MTS cell growth inhibition assay; type: cell-based; settings: Homo sapiens, DU-4475, 96 h, DU4475 breast, BRAF mutated, four days
Protocol: as §1

CCNc1cc(O)c2c(c1)/C=C/C[C@H](O)[C@H](O)C(=O)/C=C\[C@@H](C)[C@H](C)OC2=O [Compound 106]
Tumor-free animals at the end of the study on day 59 ([1]; 10 mg/kg i.v. Q4D×3): 1/8 and one | Tumor-free animals at the end of the study on day 59 ([1]; 20 mg/kg i.v. Q4D×3): 5/8 and five | Tumor-free animals at the end of the study on day 59 ([1]; 40 mg/kg i.v. Q4D×3): 7/8 and seven | Anticancer activity (tumor volume vs. control group) ([1]; 10, 20, and 40 mg/kg i.v. Q4D×3): statistically significant anticancer activity | tumor regression [2]: 30-40% | IC50 [3]: < 100 nM | IC50 [4]: < 100 nM | IC50 [5]: < 100 nM | IC50 [6]: < 100 nM | IC50 [7]: < 100 nM | IC50 [8]: < 100 nM | IC50 [9]: < 100 nM
